# Results reported in patent publication US20120035187A1 (priority 2009, published 2012).
# Marks after values point to notes of the source that are not given here.
# Legend:
# human amyloid β peptide = target: T1, human amyloid β peptide (Homo sapiens, UniProt P05067); assay: Agglutination of amyloid β peptide, thioflavine T method; type: biochemical; details: 45 μl of 200 nM test sample solution + 15 μl amyloid β peptide solution, 37° C., six days, thioflavine T fluorescence; for inhibition at 0.2 µM: read-out: Inhibition rate (%) of agglutination of amyloid β peptide
# T1 construct: purchased AnaSpec Inc., CA, USA
# T1 sequence (P05067 672-711): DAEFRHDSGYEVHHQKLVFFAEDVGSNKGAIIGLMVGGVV
# Protocol: The filtrate was made into a test sample solution by adjusting the concentration to 200 nM using Tris-HCl buffer.
# The agglutination of amyloid β peptide was measured by a method using thioflavine T (see Hilal A. Lashuel et al., Journal of Biological Chemistry, Vol. 277, No. 45, pp. 42881-42890 (2002)). Thioflavine T binds to […] structure of agglutinated amyloid β peptide and produces fluorescence. The amount of the fluorescence was determined using a fluorometric plate reader and used as an index of the agglutination of amyloid β peptide. When the agglutination of amyloid β peptide is inhibited by the test sample, fluorescence of Thioflavine T is decreased. The effects of the test samples on the agglutination of amyloid β peptide were investigated by the method. A human amyloid β peptide, having the amino acid sequence of SEQ ID NO:2 consisting of 40 amino acids, commercialized by AnaSpec Inc., CA, USA, was dissolved in sterilized distilled water to give a concentration of 400 μM for use. Test samples were diluted with Tris-HCl buffer. In a reaction vessel, 15 μl of […] admixed with 45 μl of a 200 nM test sample solution and allowed to react at 37° C. for six days. After the reaction, 50 μl of the reaction mixture was withdrawn, admixed with 450 μl of a 10 μM Thioflavine T solution, and after 30 minutes, the resulting fluorescence was measured using a fluorometer (excitation wavelength: 450 nm, […]: 482 nm). The fluorescent intensity of Thioflavine T only was regarded as 0%, and that of the solution, prepared by mixing 15 μl of a […] amyloid β peptide solution and 45 μl of Tris-HCl buffer and allowing to react at 37° C. for six days, was regarded as 100%. Inhibition rate (%) of the agglutination of amyloid β peptide was determined by the steps of measuring the relative fluorescence intensity in the case of using each test sample solution for the reaction, and subtracting the measured value from 100%.
# brain ischemia rat = assay: Brain ischemia (cerebral infarction model) rat: size/volume of cerebral infarction region (TTC); type: in vivo; details: for increment of the volume of cerebral infarction region (in words): Experiment 13, cerebral-infarction-model rat, administered through caudal vein; for Size of cerebral infarcttion region (%): brain ischemia rats, 100 p g/kg body weight via caudal vein twice, relative to control group 1 = 100%; for Volume of cerebral infarction region (mm^3): embolus rat, caudal vein
# [1] = test system: primary neuron (neuron, astrocyte and microglia) prepared from brain cortex of a rat fetus; assay: Hydrogen peroxide disorder in primary neuron; type: cell-based; details: concrete data not shown
# Source text: Though concrete data is not shown, using primary neuron (neuron, astrocyte and microglia) prepared from brain cortex of a rat fetus in place of PC12-HS cells, the influence of NK-4, NK-26, NK-234, NK-19 and NK-150 on amyloid β fragment disorder and hydrogen peroxide disorder was investigated.
# [2] = test system: ICR mice injected with amyloid β fragment; assay: Passive avoidance test, mouse injected with amyloid β fragment; type: in vivo; details: for passive avoidance test (in words): mice injected with amyloid β fragment, vs amyloid β fragment alone; for Passive avoidance reaction: mouse administered with amyloid β fragment
# Protocol: One hundred of ICR mice (male, five weeks of age, body weight of 25 to 30 g, commercialized by Charles Liver Laboratories Japan Inc., Kanagawa, Japan) were randomly divided into 10 groups, each consisting 10 heads, and raised separately until the experiment was terminated. Mice, which had been anesthetized with chloral hydrate (administered into the abdominal cavity in an amount of 350 mg/kg body weight, commercialized by SIGMA Corporation, Tokyo, Japan), were fixed at their dorsal decubitis parts, incised along their medial heads, and after confirming born suture, 9 nmol/6 μl/mouse of a solution of amyloid β fragment (β-Amyloid25-35), represented by amino acid sequence of SEQ ID No.: 1, was injected into their brain ventricles by puncturing at 1.0-mm left side and 0.5-mm backside from bregmas with a depth of 3 mm (the administration method is referred to “Brain Research”, Vol. 706, pp. 181-193 (1996)). A micro syringe with an […] stainless needle (3 mm length) was used for injection. The injection site was determined by confirming the staining at right-and-left lateral ventricles of the frontal section, dorsal third ventricle, and ventral third ventricle by injecting an Evans' Blue solution (0.3 μg/0.3 μl) in place of the solution of amyloid β fragment. The scalps were sutured after injection, any one of the compounds was administered intraperitoneally once a day over 13 days, and the behavioral score was determined by the method described below.
# The captioned test is the one for evaluating animals' avoidance behavior to the once experienced aversive stimulus (electric stimulus) as an index of memory. In this experiment, step-through test was selected as a passive avoidance test, which uses the nature of mouse who favors dark room. Using an apparatus having a bright room and a dark room connected via a door, a mouse was placed in the bright room, and measured a time required for moving into the dark room as an index of memory. The passive avoidance test was performed on 9 to 12 days after the injection of amyloid β fragment into the ventricle. On the 9th day after the administration, the mouse was placed in the bright room (1,000 lux, 30-cm in depth, 30-cm in width and 15-cm in height) for a minute, and then placed in the dark room (30-cm in depth, 30-cm in width and 15-cm in height) for two minutes to be acclimatized. On the 10th day after the administration, the mouse was further acclimatized similarly as above. On the 11th day after the administration, the mouse was placed in the center of the bright room, and when the mouse moved into the dark room, the door between the rooms was immediately closed and the electric stimulus (0.8 mA, for a second) was given to the mouse. After 24 hours (on the 12th day after the administration), the mouse was placed in the center of the bright room as had been placed in the previous day, and the time required for moving into the dark room was measured as a passive avoidance reaction. When the mouse memorized the aversive electric stimulus, the passive avoidance reaction was elongated.
# [3] = 50 μg/kg body weight i.p. once a day
# [4] = 500 μg/kg body weight i.p. once a day
Structure (SMILES),Inhibition rate (%) of agglutination of amyloid β peptide (human amyloid β peptide),increment of the volume of cerebral infarction region (in words) (brain ischemia rat),Size of cerebral infarcttion region (%) (brain ischemia rat),Volume of cerebral infarction region (mm^3) (brain ischemia rat; dose 25 μg per kg body weight),Volume of cerebral infarction region (mm^3) (brain ischemia rat; dose 50 μg per kg body weight),Volume of cerebral infarction region (mm^3) (brain ischemia rat; dose 100 μg per kg body weight),Volume of cerebral infarction region (mm^3) (brain ischemia rat; dose 200 μg per kg body weight),Volume of cerebral infarction region (mm^3) (brain ischemia rat; dose 300 μg per kg body weight),suppressing hydrogen peroxide disorder [1],"passive avoidance test (in words) [2, 3]","passive avoidance test (in words) [2, 4]",Passive avoidance reaction ([2]; dose 50 μg/kg body weight),Passive avoidance reaction ([2]; dose 500 μg/kg body weight),Volume of cerebral infarction region (mm^3) (brain ischemia rat; dose 1 μg per kg body weight),Volume of cerebral infarction region (mm^3) (brain ischemia rat; dose 10 μg per kg body weight),Passive avoidance reaction ([2]; dose 5 μg/kg body weight),inhibition at 0.2 µM (human amyloid β peptide)
CCN1C=CC(=CC=C(C=Cc2cc[n+](CC)c3ccccc23)c2cc[n+](CC)c3ccccc23)c2ccccc21.[I-].[I-] [NK-4],73%,significantly suppressed,49.4 ± 5.1 %,186 ± 21 mm^3,107 ± 21* mm^3,88 ± 18** mm^3,143 ± 26 mm^3,176 ± 31 mm^3,actions of suppressing,significant improvement,significant improvement,135 ± 24 s,164 ± 16 s,–,–,–,–
CCCCN1C=C/C(=C/C=C(/C=C/c2cc[n+](CCCC)c3ccccc23)c2cc[n+](CCCC)c3ccccc23)c2ccccc21 [NK-26],–,significantly suppressed,–,–,–,169 ± 23 mm^3,–,–,actions of suppressing,significant improvement,significant improvement,160 ± 14 s,144 ± 13 s,194 ± 22 mm^3,121 ± 22* mm^3,84 ± 25 s,–
CCN1/C(=C/C=C(/C=C/c2sc3ccccc3[n+]2CC)c2sc3ccccc3[n+]2CC)Sc2ccccc21.[I-].[I-] [NK-100],–,–,74.5 ± 11.4%,–,–,–,–,–,–,–,–,–,–,–,–,–,99%
CCCN1C=CC(=CC=C(C=Cc2cc[n+](CCC)c3ccccc23)c2cc[n+](CCC)c3ccccc23)c2ccccc21.[I-].[I-] [NK-234],–,–,–,–,–,–,–,–,actions of suppressing,–,significant improvement,–,166 ± 8 s,–,–,–,–
CC[n+]1ccccc1/C=C/c1ccc(N(C)C)cc1 [NK-557],–,–,61.1 ± 14.2%,–,–,–,–,–,–,–,–,–,–,–,–,–,95%
